Experiments:
MGMT [1] = molecular target: T1, MGMT (Homo sapiens, UniProt P16455); design: endogenous in cells; host or cells: DAOY; conditions: cultured tumor cells; cited from earlier work
T1 sequence (P16455 1-207): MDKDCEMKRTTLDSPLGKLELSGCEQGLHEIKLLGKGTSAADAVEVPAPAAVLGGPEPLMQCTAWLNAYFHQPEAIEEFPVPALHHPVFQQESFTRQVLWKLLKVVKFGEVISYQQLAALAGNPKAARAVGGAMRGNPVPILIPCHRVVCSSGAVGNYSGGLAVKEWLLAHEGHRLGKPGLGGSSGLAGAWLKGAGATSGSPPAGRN

MGMT [2] = molecular target: T1, MGMT; assay: MGMT activity and protein (western blot) in drug-treated T98G and UW228 brain tumor cells; format: cell-based; design: endogenous in cells; host or cells: UW228, T98G; conditions: UW228 cells
Procedure: The DNA repair activity of MGMT was measured by the transfer of [3H]-labeled methyl groups from the O^6-position of guanine in the DNA substrate to the MGMT protein as described previously. The DNA substrate enriched in O6-methylguanine was prepared by reacting [3H]-methylnitrosourea (GE Healthcare, 60 Ci/mmol). Briefly, the cell pellets were washed with cold PBS, disrupted by sonication in the assay buffer (30 mM Tris-HCl pH 7.5, 0.5 mM DTT, 0.5 mM EDTA, 5% glycerol, and 20 μM spermidine) and centrifuged. The extracts (50-150 μg protein) were supplemented with the [3H]-DNA (10,000 cpm) and incubated at 37° C. The reactions were terminated by the addition of TCA, the DNA substrate was hydrolyzed at 80° C., and following filtration on glass fiber discs; the radioactivity present in protein precipitates was quantitated.
After trypsinization, the cell pellets were washed with cold PBS, and subjected to sonication in 50 mM Tris-HCl (pH 8.0) containing 1% glycerol, 1 mM EDTA, 0.5 mM PMSF and 2 mM benzamidine and centrifuged. Equal protein amounts from different treatments were electrophoresed on 12% SDS-polyacrylamide gels. Proteins were electro-transferred to Immobilon-P membranes. The membranes were blocked with 5% non-fat dry milk in Trisbuffered saline (TBS; pH 8.0) containing 0.1% Tween 20 for 3 hours, and subsequently incubated with appropriate primary antibodies. Antigen-antibody complexes were visualized by enhanced chemiluminiscence (Pierce Company). Band intensities were quantified using a Bio-Rad Versa Doc Imaging system.
Cells were trypsinized, washed and MGMT activity was determined in cell extracts (top panel). The same extracts were western blotted for MGMT protein. WB, western blot. […] Cells were exposed to CuDSF and analyzed for MGMT activity and protein as above. […] To delineate the appropriate time for alkylating drug treatments following MGMT inhibition, next, the time course of MGMT depletion by these three interventions was studied.
At times indicated, MGMT activity and protein levels were assessed.
MGMT performs a stoichiometric reaction to accomplish the DNA repair and is not recycled to its active form. Instead, the inactivated protein is degraded and fresh translation has to occur to restore the MGMT levels in cells. The rate and extent of this recovery is an important factor in the extent of damage introduced to the normal cell genomes such as the bone marrow stem cells. […] MGMT protein and activity levels were analyzed during the depletion and repletion (FIG. 3B).

loss/inhibition of MGMT activity at 12 hours post-drug treatment (MGMT [2]; 50 μM, 12 hours): 100%
recovery of MGMT activity, % of control levels (MGMT [2]; 48 hours post-drug in drug-free media after 50 μM for 12 hours): 25 % of control levels
SMILES: Nc1nc(OCc2ccccc2)c2nc[nH]c2n1 [BG, O^6-benzylguanine]
duration of suppression of DNA repair (MGMT [1]): 48 to 72 h
